What all share (experiment): KinomeScan kinase panel, single concentration 10 µM
Common to all, as to format: binding

Test [1] has as its target T1, KinomeScan kinase panel (Homo sapiens, UniProt P07948).
T1 construct: purchased DiscoveRx (KinomeScan)
As to conditions: LYN, 10 µM; read-out: score (%).

For test [2], the target named is T2, KinomeScan kinase panel (Homo sapiens, UniProt Q8NEV4).
T2 construct: purchased DiscoveRx (KinomeScan)
Conditions: MYO3A, 10 µM; read-out: score (%).

Test [3] has as its target T3, KinomeScan kinase panel (Homo sapiens, UniProt P31751).
T3 construct: purchased DiscoveRx (KinomeScan)
Conditions: AKT2, 10 µM; read-out: score (%).

For test [4], the target named is T4, KinomeScan kinase panel (Homo sapiens, UniProt P30530).
T4 construct: purchased DiscoveRx (KinomeScan)
T4 sequence (P30530 26-894): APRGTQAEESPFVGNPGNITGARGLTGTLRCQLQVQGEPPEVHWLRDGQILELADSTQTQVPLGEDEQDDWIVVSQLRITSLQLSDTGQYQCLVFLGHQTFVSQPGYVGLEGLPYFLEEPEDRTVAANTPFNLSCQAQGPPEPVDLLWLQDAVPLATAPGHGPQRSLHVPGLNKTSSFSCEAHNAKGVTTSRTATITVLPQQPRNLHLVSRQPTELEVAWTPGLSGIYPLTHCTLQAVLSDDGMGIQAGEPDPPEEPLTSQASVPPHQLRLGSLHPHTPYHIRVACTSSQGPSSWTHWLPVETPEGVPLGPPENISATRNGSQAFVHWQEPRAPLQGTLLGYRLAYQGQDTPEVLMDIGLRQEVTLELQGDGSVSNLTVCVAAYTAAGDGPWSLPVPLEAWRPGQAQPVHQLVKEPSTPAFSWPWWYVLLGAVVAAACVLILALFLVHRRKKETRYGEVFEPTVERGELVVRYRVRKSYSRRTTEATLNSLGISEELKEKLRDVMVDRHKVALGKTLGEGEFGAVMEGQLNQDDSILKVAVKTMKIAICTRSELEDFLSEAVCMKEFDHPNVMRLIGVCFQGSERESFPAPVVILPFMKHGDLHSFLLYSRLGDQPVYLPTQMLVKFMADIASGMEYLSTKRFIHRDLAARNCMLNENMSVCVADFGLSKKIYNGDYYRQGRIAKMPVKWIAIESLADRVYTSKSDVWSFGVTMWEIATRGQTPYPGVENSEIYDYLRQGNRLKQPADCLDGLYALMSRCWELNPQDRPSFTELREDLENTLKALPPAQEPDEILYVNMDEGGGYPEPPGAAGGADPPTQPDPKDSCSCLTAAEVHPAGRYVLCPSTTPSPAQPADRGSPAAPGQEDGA
Conditions: AXL, 10 µM; read-out: score (%).

Test [5] has as its target T5, KinomeScan kinase panel (Homo sapiens, UniProt P00519, Q252H).
T5 construct: purchased DiscoveRx (KinomeScan)
Conditions: 10 µM, read-out: score (%).

Test [6] deals with T6, KinomeScan kinase panel (Homo sapiens, UniProt P54762).
T6 construct: purchased DiscoveRx (KinomeScan)
T6 sequence (P54762 18-984): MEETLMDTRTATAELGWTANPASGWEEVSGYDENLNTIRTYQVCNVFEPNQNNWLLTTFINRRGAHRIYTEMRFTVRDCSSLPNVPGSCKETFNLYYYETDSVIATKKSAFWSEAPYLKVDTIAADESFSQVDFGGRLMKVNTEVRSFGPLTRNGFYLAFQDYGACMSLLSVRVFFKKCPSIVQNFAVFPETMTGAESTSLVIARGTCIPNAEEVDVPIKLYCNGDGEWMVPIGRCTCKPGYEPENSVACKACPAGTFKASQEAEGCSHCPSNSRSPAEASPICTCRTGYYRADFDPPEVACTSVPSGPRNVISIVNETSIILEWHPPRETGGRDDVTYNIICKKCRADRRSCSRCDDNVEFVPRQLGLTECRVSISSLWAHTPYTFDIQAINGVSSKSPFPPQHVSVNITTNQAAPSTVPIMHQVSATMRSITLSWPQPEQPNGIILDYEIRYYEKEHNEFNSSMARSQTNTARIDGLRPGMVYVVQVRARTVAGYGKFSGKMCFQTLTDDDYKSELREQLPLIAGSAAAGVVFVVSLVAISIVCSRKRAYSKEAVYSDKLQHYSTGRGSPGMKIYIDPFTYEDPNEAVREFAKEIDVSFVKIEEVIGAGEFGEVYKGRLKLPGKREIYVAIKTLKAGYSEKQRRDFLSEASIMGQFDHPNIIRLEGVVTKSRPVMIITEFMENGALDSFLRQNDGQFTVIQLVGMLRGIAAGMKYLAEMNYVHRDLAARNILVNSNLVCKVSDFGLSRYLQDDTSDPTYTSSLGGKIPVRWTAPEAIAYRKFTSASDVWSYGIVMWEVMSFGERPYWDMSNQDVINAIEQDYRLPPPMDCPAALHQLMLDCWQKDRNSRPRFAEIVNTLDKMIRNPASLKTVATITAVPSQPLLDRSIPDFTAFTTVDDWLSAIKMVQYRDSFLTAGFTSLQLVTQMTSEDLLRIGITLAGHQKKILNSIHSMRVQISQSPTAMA
As to conditions: EPHB1, 10 µM; read-out: score (%).

The target of test [7] is T7, KinomeScan kinase panel (Homo sapiens, UniProt Q13131).
T7 construct: purchased DiscoveRx (KinomeScan)
Conditions: AMPK-alpha1, 10 µM; read-out: score (%).

Test [8] addresses T8, KinomeScan kinase panel (Homo sapiens, UniProt P21127).
T8 construct: purchased DiscoveRx (KinomeScan)
Conditions: CDC2L1, 10 µM; read-out: score (%).

The structures appear in SMILES notation. Like-named read-outs stand apart in the source and are kept apart here. A value given as a limit tells only on which side of the number the result lay.

T8 sequence (P21127 whole entry): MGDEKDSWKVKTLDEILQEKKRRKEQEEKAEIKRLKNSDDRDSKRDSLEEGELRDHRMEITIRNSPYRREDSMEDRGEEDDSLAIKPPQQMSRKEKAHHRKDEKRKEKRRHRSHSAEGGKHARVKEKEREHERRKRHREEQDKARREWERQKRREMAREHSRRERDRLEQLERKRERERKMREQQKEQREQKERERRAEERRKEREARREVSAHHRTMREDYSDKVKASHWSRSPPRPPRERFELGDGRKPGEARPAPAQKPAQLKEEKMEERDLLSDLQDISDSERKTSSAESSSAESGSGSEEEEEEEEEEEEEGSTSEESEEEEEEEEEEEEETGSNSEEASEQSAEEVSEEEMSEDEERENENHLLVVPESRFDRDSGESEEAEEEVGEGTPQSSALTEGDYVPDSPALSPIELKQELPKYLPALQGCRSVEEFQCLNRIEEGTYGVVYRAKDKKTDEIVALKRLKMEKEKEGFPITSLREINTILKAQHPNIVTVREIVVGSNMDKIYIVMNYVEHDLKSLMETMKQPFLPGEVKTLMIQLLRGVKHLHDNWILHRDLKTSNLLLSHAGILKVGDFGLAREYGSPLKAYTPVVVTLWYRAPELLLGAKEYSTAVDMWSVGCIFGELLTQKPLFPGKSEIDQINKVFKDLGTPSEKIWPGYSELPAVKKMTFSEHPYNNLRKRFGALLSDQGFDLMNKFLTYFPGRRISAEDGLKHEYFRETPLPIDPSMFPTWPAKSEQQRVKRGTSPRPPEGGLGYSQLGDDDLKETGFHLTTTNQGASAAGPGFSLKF
T1 sequence (P07948 whole entry): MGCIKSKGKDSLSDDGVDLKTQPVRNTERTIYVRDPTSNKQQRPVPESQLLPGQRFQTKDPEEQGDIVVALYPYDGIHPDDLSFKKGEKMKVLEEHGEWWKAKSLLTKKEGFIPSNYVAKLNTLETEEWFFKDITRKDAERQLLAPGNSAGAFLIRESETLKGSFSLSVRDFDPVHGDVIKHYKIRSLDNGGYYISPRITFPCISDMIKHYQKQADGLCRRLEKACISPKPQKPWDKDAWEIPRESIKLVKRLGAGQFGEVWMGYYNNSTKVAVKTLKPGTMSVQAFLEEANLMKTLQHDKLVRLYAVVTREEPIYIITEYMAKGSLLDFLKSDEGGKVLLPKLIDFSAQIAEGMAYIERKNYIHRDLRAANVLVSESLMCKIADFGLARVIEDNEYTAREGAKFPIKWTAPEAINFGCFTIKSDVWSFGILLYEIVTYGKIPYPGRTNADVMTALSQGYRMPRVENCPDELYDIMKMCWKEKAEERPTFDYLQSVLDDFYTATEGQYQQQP
T2 sequence (Q8NEV4 whole entry): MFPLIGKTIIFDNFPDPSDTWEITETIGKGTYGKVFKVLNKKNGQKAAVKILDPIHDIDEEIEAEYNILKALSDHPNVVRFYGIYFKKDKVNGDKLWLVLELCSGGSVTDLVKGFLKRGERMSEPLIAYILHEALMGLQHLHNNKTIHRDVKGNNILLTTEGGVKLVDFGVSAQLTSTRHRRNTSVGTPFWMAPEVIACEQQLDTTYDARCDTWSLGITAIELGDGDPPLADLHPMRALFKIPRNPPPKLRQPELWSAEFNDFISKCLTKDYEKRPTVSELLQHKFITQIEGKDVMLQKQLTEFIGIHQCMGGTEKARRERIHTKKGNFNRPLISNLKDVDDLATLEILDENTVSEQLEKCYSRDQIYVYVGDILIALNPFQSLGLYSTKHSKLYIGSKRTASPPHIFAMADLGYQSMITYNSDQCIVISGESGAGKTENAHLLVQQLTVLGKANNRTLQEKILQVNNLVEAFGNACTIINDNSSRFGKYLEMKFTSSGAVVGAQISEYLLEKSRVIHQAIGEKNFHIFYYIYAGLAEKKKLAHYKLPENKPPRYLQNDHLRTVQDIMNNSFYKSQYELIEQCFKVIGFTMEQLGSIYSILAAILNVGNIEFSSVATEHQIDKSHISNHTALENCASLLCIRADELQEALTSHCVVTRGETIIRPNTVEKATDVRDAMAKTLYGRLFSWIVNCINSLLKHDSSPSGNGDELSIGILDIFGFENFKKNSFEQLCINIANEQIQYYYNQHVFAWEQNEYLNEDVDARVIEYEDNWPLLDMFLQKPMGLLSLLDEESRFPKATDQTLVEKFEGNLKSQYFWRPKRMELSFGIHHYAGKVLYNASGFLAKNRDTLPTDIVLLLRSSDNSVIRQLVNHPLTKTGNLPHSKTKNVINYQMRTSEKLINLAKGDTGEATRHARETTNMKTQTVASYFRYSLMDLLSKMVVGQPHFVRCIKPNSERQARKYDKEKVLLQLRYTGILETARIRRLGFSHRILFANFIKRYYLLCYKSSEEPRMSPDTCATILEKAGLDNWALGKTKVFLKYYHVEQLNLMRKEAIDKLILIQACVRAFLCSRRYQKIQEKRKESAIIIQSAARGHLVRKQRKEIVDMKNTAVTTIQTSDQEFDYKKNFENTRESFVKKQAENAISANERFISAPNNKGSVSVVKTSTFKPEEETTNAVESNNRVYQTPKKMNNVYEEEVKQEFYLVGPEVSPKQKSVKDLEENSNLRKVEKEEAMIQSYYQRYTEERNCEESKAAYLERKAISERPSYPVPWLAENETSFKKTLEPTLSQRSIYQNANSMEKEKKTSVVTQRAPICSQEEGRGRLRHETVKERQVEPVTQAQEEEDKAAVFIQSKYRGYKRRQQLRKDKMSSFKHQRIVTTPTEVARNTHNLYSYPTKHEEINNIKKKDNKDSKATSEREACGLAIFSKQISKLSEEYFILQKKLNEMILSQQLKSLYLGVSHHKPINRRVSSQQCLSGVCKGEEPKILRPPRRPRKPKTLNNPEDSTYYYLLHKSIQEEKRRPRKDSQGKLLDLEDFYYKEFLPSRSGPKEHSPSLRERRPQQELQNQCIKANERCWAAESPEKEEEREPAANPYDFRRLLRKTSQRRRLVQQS
T3 sequence (P31751 whole entry): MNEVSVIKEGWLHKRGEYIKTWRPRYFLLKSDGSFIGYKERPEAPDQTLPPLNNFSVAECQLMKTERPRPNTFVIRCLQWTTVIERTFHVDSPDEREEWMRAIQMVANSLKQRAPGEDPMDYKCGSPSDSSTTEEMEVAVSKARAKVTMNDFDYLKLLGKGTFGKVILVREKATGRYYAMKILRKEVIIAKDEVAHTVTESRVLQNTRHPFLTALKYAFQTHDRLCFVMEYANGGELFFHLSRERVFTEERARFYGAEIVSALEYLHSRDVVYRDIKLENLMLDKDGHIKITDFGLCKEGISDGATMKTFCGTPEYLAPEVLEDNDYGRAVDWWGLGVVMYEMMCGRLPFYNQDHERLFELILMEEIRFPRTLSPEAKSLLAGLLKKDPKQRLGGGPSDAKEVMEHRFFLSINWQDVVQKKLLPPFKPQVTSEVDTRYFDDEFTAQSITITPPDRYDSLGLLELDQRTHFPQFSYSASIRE
T7 sequence (Q13131 whole entry): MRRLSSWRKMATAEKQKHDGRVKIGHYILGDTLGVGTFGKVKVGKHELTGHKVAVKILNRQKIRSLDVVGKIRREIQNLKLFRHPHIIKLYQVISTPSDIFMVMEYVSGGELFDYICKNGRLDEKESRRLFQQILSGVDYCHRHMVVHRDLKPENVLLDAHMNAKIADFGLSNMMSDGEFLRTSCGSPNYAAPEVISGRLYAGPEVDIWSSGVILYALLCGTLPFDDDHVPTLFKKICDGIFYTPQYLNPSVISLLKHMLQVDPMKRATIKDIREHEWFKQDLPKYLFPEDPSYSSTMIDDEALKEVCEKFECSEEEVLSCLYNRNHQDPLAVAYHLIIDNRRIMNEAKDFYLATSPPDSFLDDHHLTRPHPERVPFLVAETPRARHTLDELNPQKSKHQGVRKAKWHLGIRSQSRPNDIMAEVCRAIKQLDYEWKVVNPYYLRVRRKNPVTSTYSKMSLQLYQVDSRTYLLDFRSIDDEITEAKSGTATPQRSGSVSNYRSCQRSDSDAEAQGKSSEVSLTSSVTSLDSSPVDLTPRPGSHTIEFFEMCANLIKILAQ

Turning to `CCN1CCN(Cc2ccc(NC(=O)c3ccc(C)c(NC(=O)c4cncc(-c5cccs5)c4)c3)cc2C(F)(F)F)CC1` [ALW-II-41-27], the remaining binding at 10 µM in test [1] was 0.1%; in test [2], 17%; in test [3] it was > 30%; in test [4], > 30%; in test [5] (ABL1(Q252H)), 0.25%; in test [6] it was 0.15%. The figures for the remaining binding at 10 µM in test [7] and in test [8] were > 30% and 1.5%, respectively.
As for `CCN1CCN(Cc2ccc(NC(=O)c3ccc(C)c(/C=C/c4cnc5[nH]ccc5c4Cl)c3)cc2C(F)(F)F)CC1` [HG-6-63-01, (E)-3-(2-(4-chloro-1H-pyrrolo[2,3-b]pyridin-5-yl)vinyl)-N-(4-((4-ethylpiperazin-1-yl)methyl)-3-(trifluoromethyl)phenyl)-4-methylbenzamide], the remaining binding at 10 µM in test [1] was 0.25%; in test [2], > 30%; in test [3], > 30%; in test [4], 17%; in test [5] (ABL1(Q252H)), 0.1%; in test [6], 0.7%. The remaining binding at 10 µM amounted to 18% in test [7] and 13% in test [8].
Consider `CCN1CCN(Cc2ccc(NC(=O)c3ccc(C)c(C#Cc4cccnc4)c3)cc2C(F)(F)F)CC1` [XMD15-44], for which the remaining binding at 10 µM in test [1] is 0.05%; in test [2] it was 3.2%; in test [3], 30%; in test [4] it was 2.9%; in test [5] (ABL1(Q252H)-nonphosphorylated), 6.4%; in test [5] (ABL1(Q252H)-phosphorylated), 0.7%. Further, the remaining binding at 10 µM turned out to be 0.5% in test [6], 1.2% in test [7] and 2.5% in test [8].
